In ChEMBL document CHEMBL1201862, “PubChem BioAssay data set” (2004):
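Cells were grown in 96-well plates and exposed to each compound for 48 hours at five concentrations; endpoints were interpolated linearly between bracketing concentrations, or set to the highest concentration if not reached. At the GI50, growth is halved.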 Calls of active or inactive are those of the source. Cut-off read from the data, not from the text of the source: active = GI50 up to about 1.1 µM and inactive = higher.

Columns and labels:
Assay in all cases: NCI tumour cell line growth inhibition, 48 h
[1] = test system: UACC-257
[2] = test system: SK-OV-3
[3] = test system: HOP-18
[4] = test system: SN12C
[5] = test system: CCRF-CEM
[6] = test system: Malme-3M
[7] = test system: COLO 205
[8] = test system: SNB-19
[9] = test system: SW-620
[10] = test system: HCT-116
[11] = test system: EKVX
[12] = test system: NCI-H522
[13] = test system: SR
[14] = test system: LOX IMVI
[15] = test system: U-251
[16] = test system: A498
[17] = test system: CAKI-1
[18] = test system: MDA-MB-435
[19] = test system: NCI/ADR-RES
[20] = test system: BT-549

SMILES	GI50 [1]	GI50 [2]	GI50 [3]	GI50 [4]	GI50 [5]	GI50 [6]	GI50 [7]	GI50 [8]	GI50 [9]	GI50 [10]	GI50 [11]	GI50 [12]	GI50 [13]	GI50 [14]	GI50 [15]	GI50 [16]	GI50 [17]	GI50 [18]	GI50 [19]	GI50 [20]
CCOC(=O)c1c[nH]c2c(ccc3ncccc32)c1=O	> 100 µM (inactive)	> 100 µM (inactive)	> 100 µM (inactive)	> 100 µM (inactive)	> 100 µM (inactive)	> 100 µM (inactive)	> 100 µM (inactive)	> 100 µM (inactive)	> 100 µM (inactive)	> 100 µM (inactive)	> 100 µM (inactive)	> 100 µM (inactive)	> 100 µM (inactive)	> 100 µM (inactive)	> 100 µM (inactive)	> 100 µM (inactive)	–	–	–	–
Cc1c(O)c(=O)ccn1CCN	> 100 µM (inactive)	> 100 µM (inactive)	> 100 µM (inactive)	> 100 µM (inactive)	> 100 µM (inactive)	> 100 µM (inactive)	> 100 µM (inactive)	> 100 µM (inactive)	> 100 µM (inactive)	> 100 µM (inactive)	> 100 µM (inactive)	> 100 µM (inactive)	–	> 100 µM (inactive)	> 100 µM (inactive)	> 100 µM (inactive)	> 100 µM (inactive)	–	–	–
O=C1CCC(=O)C12CCc1cccc(O)c12	–	> 100 µM (inactive)	> 100 µM (inactive)	> 100 µM (inactive)	–	> 100 µM (inactive)	> 100 µM (inactive)	–	> 100 µM (inactive)	–	> 100 µM (inactive)	–	–	> 100 µM (inactive)	> 100 µM (inactive)	–	> 100 µM (inactive)	–	–	–
CCOc1ccc(O)cc1[P+](c1ccccc1)(c1ccccc1)c1ccccc1	0.647 µM (active)	6.53 µM (inactive)	2.91 µM (inactive)	3.13 µM (inactive)	1.56 µM (inactive)	3.65 µM (inactive)	2.86 µM (inactive)	3.33 µM (inactive)	–	2.19 µM (inactive)	11.5 µM (inactive)	1.14 µM (inactive)	–	2.59 µM (inactive)	2.54 µM (inactive)	11.7 µM (inactive)	8.24 µM (inactive)	–	–	–
C/C(=N\N=C(\N)S)c1ccc(Oc2ccccc2)cc1	–	16.2 µM (inactive)	14.1 µM (inactive)	11.4 µM (inactive)	5.04 µM (inactive)	–	8.36 µM (inactive)	16 µM (inactive)	16.3 µM (inactive)	10.2 µM (inactive)	12.2 µM (inactive)	–	–	13.5 µM (inactive)	15.4 µM (inactive)	13.7 µM (inactive)	–	–	–	–
O=c1ncc(F)cn1C1OC(CO)C(O)C1O (stereo unspecified)	14.1 µM (inactive)	> 42.6 µM (inactive)	> 31.5 µM (inactive)	> 17.4 µM (inactive)	14.7 µM (inactive)	> 29.8 µM (inactive)	> 24.6 µM (inactive)	> 18.3 µM (inactive)	> 31.4 µM (inactive)	24.4 µM (inactive)	> 100 µM (inactive)	> 32.7 µM (inactive)	–	16.7 µM (inactive)	> 14.9 µM (inactive)	> 44.2 µM (inactive)	15.5 µM (inactive)	–	–	–
Cc1ccc(O)c(/N=N/c2ccc(S(=O)(=O)O)cc2)n1	–	> 100 µM (inactive)	> 100 µM (inactive)	> 100 µM (inactive)	> 100 µM (inactive)	–	> 100 µM (inactive)	–	> 100 µM (inactive)	> 100 µM (inactive)	21 µM (inactive)	> 100 µM (inactive)	–	> 100 µM (inactive)	> 100 µM (inactive)	> 100 µM (inactive)	> 100 µM (inactive)	–	–	–
CCCOC(=O)C1CCC(=O)N1C(=O)C(C)Cl (stereo unspecified)	> 100 µM (inactive)	> 100 µM (inactive)	> 100 µM (inactive)	> 100 µM (inactive)	> 100 µM (inactive)	> 100 µM (inactive)	> 100 µM (inactive)	> 100 µM (inactive)	> 100 µM (inactive)	> 100 µM (inactive)	> 100 µM (inactive)	> 100 µM (inactive)	–	> 100 µM (inactive)	> 100 µM (inactive)	> 100 µM (inactive)	> 100 µM (inactive)	–	–	–
CC12OC(=O)C(C#N)C1(C)C1C(=O)CCCC12 (stereo unspecified)	–	> 100 µM (inactive)	> 100 µM (inactive)	> 100 µM (inactive)	> 100 µM (inactive)	> 100 µM (inactive)	> 100 µM (inactive)	> 100 µM (inactive)	> 100 µM (inactive)	> 100 µM (inactive)	> 100 µM (inactive)	–	–	> 100 µM (inactive)	> 100 µM (inactive)	–	–	–	–	–
COC(=O)CC(C(C(=O)OC)C(=O)OC)N1C(=O)OC(c2ccccc2)C1c1ccccc1 (stereo unspecified)	> 100 µM (inactive)	> 100 µM (inactive)	> 100 µM (inactive)	> 100 µM (inactive)	63.1 µM (inactive)	> 100 µM (inactive)	86.9 µM (inactive)	> 100 µM (inactive)	26.1 µM (inactive)	95.9 µM (inactive)	> 100 µM (inactive)	69.5 µM (inactive)	–	38.9 µM (inactive)	89.5 µM (inactive)	> 100 µM (inactive)	19.3 µM (inactive)	–	–	–
COc1cc(C2c3cc4c(cc3[C@@H](NCCN3CCCCC3)C3COC(=O)[C@H]23)OCO4)cc(OC)c1O (stereo partly specified)	2.78 µM (inactive)	0.098 µM (active)	0.303 µM (active)	1.91 µM (inactive)	0.0378 µM (active)	0.29 µM (active)	1.01 µM (active)	0.354 µM (active)	1.04 µM (active)	1.15 µM (inactive)	1.55 µM (inactive)	–	–	0.237 µM (active)	0.109 µM (active)	0.165 µM (active)	0.0918 µM (active)	–	–	–
O=C(/C=C/c1ccc(O)c(-c2cc(C(=O)/C=C/c3ccc(O)cc3)c(O)cc2O)c1)c1ccc(O)cc1O [RHUSCHALCONE VI]	> 50 µM (inactive)	16.1 µM (inactive)	–	20.4 µM (inactive)	10.1 µM (inactive)	22.1 µM (inactive)	10.5 µM (inactive)	28.6 µM (inactive)	19.5 µM (inactive)	11.5 µM (inactive)	> 50 µM (inactive)	37.4 µM (inactive)	11.4 µM (inactive)	14.5 µM (inactive)	15.8 µM (inactive)	> 50 µM (inactive)	> 50 µM (inactive)	21.4 µM (inactive)	> 50 µM (inactive)	15.5 µM (inactive)
CCN(CC)c1ccc(C2N3CCCCC3[C@@H]3c4[nH]c5ccccc5c4CCN23)cc1 (stereo partly specified)	27.7 µM (inactive)	69.7 µM (inactive)	> 100 µM (inactive)	19.7 µM (inactive)	16.3 µM (inactive)	24.2 µM (inactive)	27.4 µM (inactive)	32.5 µM (inactive)	33.5 µM (inactive)	16.1 µM (inactive)	74.8 µM (inactive)	–	–	–	29.6 µM (inactive)	14.5 µM (inactive)	74.3 µM (inactive)	–	–	–
O=C(O)CNCc1c2ccccc2[n+]([O-])c2ccccc12	> 100 µM (inactive)	> 100 µM (inactive)	52.7 µM (inactive)	73.6 µM (inactive)	34.3 µM (inactive)	> 100 µM (inactive)	> 100 µM (inactive)	> 100 µM (inactive)	47 µM (inactive)	20.2 µM (inactive)	> 100 µM (inactive)	46.1 µM (inactive)	–	36.6 µM (inactive)	> 100 µM (inactive)	> 100 µM (inactive)	> 100 µM (inactive)	–	–	–
Cc1ccc2nc(NC(=O)C(=O)CC(=O)c3cccc4ccccc34)sc2c1	27.2 µM (inactive)	19.2 µM (inactive)	24.7 µM (inactive)	52 µM (inactive)	30.8 µM (inactive)	27 µM (inactive)	60.4 µM (inactive)	39.7 µM (inactive)	38.9 µM (inactive)	–	92 µM (inactive)	–	–	32.2 µM (inactive)	22 µM (inactive)	63.5 µM (inactive)	22.2 µM (inactive)	–	–	–
O=C1c2cccc3cc([N+](=O)[O-])cc(c23)C(=O)N1CCCN1CCN(CCCN2C(=O)c3cccc4cc([N+](=O)[O-])cc(c34)C2=O)CC1	0.585 µM (active)	2.59 µM (inactive)	1.77 µM (inactive)	0.08 µM (active)	0.0803 µM (active)	0.571 µM (active)	0.108 µM (active)	0.122 µM (active)	0.0284 µM (active)	< 0.01 µM (active)	0.612 µM (active)	–	–	0.0234 µM (active)	0.0248 µM (active)	0.272 µM (active)	0.0293 µM (active)	–	–	–
CC(N)C(=O)c1ccc(O)cc1 (stereo unspecified)	> 100 µM (inactive)	> 100 µM (inactive)	> 100 µM (inactive)	> 100 µM (inactive)	> 100 µM (inactive)	> 100 µM (inactive)	> 100 µM (inactive)	> 100 µM (inactive)	> 100 µM (inactive)	> 100 µM (inactive)	> 100 µM (inactive)	> 100 µM (inactive)	–	> 100 µM (inactive)	> 100 µM (inactive)	> 100 µM (inactive)	> 100 µM (inactive)	–	–	–
COc1ccc(/C(Cl)=C/c2cc(OC)ccc2OC)cc1	> 100 µM (inactive)	99.8 µM (inactive)	> 100 µM (inactive)	56.4 µM (inactive)	31.8 µM (inactive)	93.3 µM (inactive)	> 100 µM (inactive)	> 100 µM (inactive)	48.1 µM (inactive)	48.8 µM (inactive)	> 100 µM (inactive)	46.9 µM (inactive)	30.6 µM (inactive)	–	84.7 µM (inactive)	92.9 µM (inactive)	–	–	–	–
